# Results as given in patent US20100092465A1, “TREATMENT OF GRAFT-VERSUS-HOST DISEASE” (priority 2006, published 2010).
# How the values were obtained:
# muIL-27 = molecular target: T1, muIL-27 (Mus musculus, UniProt O35228+Q8K3I6); test: Phospho-STAT3 neutralization assay, total human PBMCs, muIL-27; format: cell-based; settings: ligand muIL-27 at EC90
# T1 sequence (O35228 19-228): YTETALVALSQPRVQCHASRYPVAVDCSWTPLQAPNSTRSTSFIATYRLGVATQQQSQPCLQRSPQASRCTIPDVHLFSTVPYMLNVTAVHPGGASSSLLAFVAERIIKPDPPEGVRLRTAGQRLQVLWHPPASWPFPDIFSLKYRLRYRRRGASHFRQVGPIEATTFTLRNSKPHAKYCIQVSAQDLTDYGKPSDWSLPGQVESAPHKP
# T1 sequence (Q8K3I6 29-234): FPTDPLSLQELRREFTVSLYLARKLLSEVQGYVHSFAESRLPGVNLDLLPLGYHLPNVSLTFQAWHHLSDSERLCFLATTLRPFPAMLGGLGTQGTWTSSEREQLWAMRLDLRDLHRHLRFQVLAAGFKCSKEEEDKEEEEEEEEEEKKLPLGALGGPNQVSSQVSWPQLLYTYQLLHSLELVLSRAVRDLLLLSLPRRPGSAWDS
# From the text: Whole mouse spleens were harvested from C57 B1/6 mice and washed two times with 1×PBS before being plated out at 2×10^5 cells/well in assay media (RPMI 1640 plus 10% fetal bovine serum) in 96-well, round-bottom tissue culture plates. Total human PBMC (peripheral blood mononuclear cells) were thawed from a frozen vial collected from a leukapherisis donation and washed two times with 1×PBS before being plated out at 10^6 cells/well in assay media in 96-well, round-bottom tissue culture plates. […] Following pre-incubation, treatments were added to the plates containing the cells and incubated together at 37° C. for 15 minutes.
# Following incubation, cells were washed with ice-cold wash buffer (BIO-PLEX Cell Lysis Kit, BIO-RAD Laboratories, Hercules, Calif.) and put on ice to stop the reaction according to manufacturer's instructions. […]
# Capture beads (BIO-PLEX Phospho-Stat3 Assay, BIO-RAD Laboratories) were combined with 50 μL of 1:1 diluted lysates and added to a 96-well filter plate according to manufacture's instructions (BIO-PLEX Phosphoprotein Detection Kit, BIO-RAD Laboratories). […] After the final wash, beads were resuspended in 125 μL/well of bead suspension buffer, shaken for 30 seconds, and read on an array reader (BIO-PLEX, BIO-RAD Laboratories) according to the manufacture's instructions. Data were analyzed using analytical softward (BIO-PLEX MANAGER 3.0, BIO-RAD Laboratories). […]
# [1] = test system: acute graft-vs-host disease; test: Mouse model of acute graft-vs-host disease; format: in vivo
# Procedure: Efficacy of IL-27 antagonists was assayed in a mouse model of acute graft-vs-host disease (Durie et al., J. Clin. Invest. 94:1333-1338, 1994). Parental mice (C57BL/6; n=12) were euthanized, and their spleens were collected. The pooled spleens were smashed using two glass slides to dissociate splenic cells. Lysis buffer was added to the splenocyte suspension to remove red blood cells. The cells were washed in RPMI 1640 (10% FBS) medium and resuspended in an appropriate amount of PBS to make a cell concentration of 300 million cells/ml. Protein treatments were administered by intraperitoneal injection every other day beginning on day-1 and continuing until day 15. Dexamethasone (DEX) was administered by injection daily on days 0 through 6. On day 0, 75 million donor splenic lymphocytes from B6 mice (250 .micro.l per injection) were injected intravenously into recipient mice (C57BL/6×DBA/2 F1 (BDF1); n=10 per group) mice. Mice were monitored 3 times a week for changes in body weight and any signs of moribundity. Mice that lost >20% of their initial body weight were euthanized. Otherwise, mice were sacrificed 18 days after the cell transfer. Spleens were collected, and a CTL-specific lysis assay using P815 cells was performed as a quantitative measurement of acute GVHD. Furthermore, spleens were stained for T- and B-cell markers, including MHC class I markers (H2^b and H2^d) to look at donor/recipient cell ratio (acute GVHD spleen cells are mostly donor cells). Sera were collected to measure serum level of IgG1, IgG2a, and IgE by ELISA, and cytokine and chemokine levels using a commercially available kit (Luminex Corporation, Austin, Tex.).
# P815 cells = test: CTL-specific lysis assay with splenocytes of GVHD mice; format: cell-based, mouse; settings: splenocytes of treated animals versus PBS; calcein-labeled P815 targets
# Procedure: Efficacy of IL-27 antagonists was assayed in a mouse model of acute graft-vs-host disease (Durie et al., J. Clin. Invest. 94:1333-1338, 1994). Parental mice (C57BL/6; n=12) were euthanized, and their spleens were collected. The pooled spleens were smashed using two glass slides to dissociate splenic cells. Lysis buffer was added to the splenocyte suspension to remove red blood cells. The cells were washed in RPMI 1640 (10% FBS) medium and resuspended in an appropriate amount of PBS to make a cell concentration of 300 million cells/ml. Protein treatments were administered by intraperitoneal injection every other day beginning on day-1 and continuing until day 15. Dexamethasone (DEX) was administered by injection daily on days 0 through 6. […] Mice were monitored 3 times a week for changes in body weight and any signs of moribundity. […] Spleens were collected, and a CTL-specific lysis assay using P815 cells was performed as a quantitative measurement of acute GVHD. […]
# For CTL assay, P815 cells (a tumor cell line from mice with the same MHC class as DBA2) were labeled with calcein, then splenocytes from each experimental animal were added to the calcein-labeled P815 cells at effector (splenocytes):target (P815) ratios of 100:1, 33:1, and 10:1. Four hours after incubation at 37° C., supernatants were collected and fluorescence was measured (485 nm/535 nm).
substance,measurement,setting,value
"human IL-27RA-Fc5: human IL27RA extracellular domain (amino acids 1 to 512 of SEQ ID NO:5) fused to Fc5, effector minus human gamma1 Fc; SEQ ID NO:3",IC50,muIL-27,2.97 nM
same,colon length shortening,"[1]; mouse, in vivo",did prevent colon length shortening
same,splenomegaly,"[1]; mouse, in vivo",did not prevent splenomegaly
same,"maintenance of host spleen cells, CD4+ T cells, and Treg cells","[1]; proteins 100 µl of 1 mg/ml IP every other day, day -1 to 15, DEX daily days 0-6, day 18","maintained host spleen cells, CD4+ T cells, and Treg cells"
same,Body weight loss,[1]; versus PBS controls,not severe and was significantly less than in PBS controls
same,CTL activity,P815 cells,reduced CTL activity compared to PBS
